# “And” between values parts separate entries of the source, which are not always exact repeats. Equal values may be shown once.
# Tests used:
# 3-deoxyglucosone = experiment: Reduction of urinary and plasma 3-deoxyglucosone in rats; type: in vivo, rat; conditions: for Plasma 3-deoxyglucosone reduced / average reduction of urinary 3-deoxyglucosone: rats, 10 μmols intraperitoneal; for Plasma 3-deoxyglucosone reduced: plasma at end of three hours; for average reduction of urinary 3-deoxyglucosone: urine three hours after vs before, normalized to creatinine
# Method: Urine was collected from six rats for three hours. A plasma sample was also obtained. The animals were then given 10 μmols of either sorbitollysine, mannitollysine, or galactitollysine by intraperitoneal injection. Urine was collected for another three hours, and a plasma sample obtained at the end of the three hours.
# a. 3-deoxyglucosone was measured in the samples, as described in Example 5, below, and variable volumes were normalized to creatinine. The average reduction of urinary 3-deoxyglucosone was 50% by sorbitollysine, 35% by mannitollysine and 35% by galactitollysine. Plasma 3-deoxyglucosone was reduced 40% by sorbitollysine, 58% by mannitollysine and 50% by galactitollysine.
# Three rats were treated as in b), immediately above, except meglumine (100 μmols) was injected intraperitoneally instead of the above-mentioned lysine derivatives. Three hours after the injection the average 3-deoxyglucosone concentrations in the urine were decreased 42%.
# 3DG was measured by GC-MS after deionization of the sample. 3DG was derivatized with a 10-fold excess of diaminonaphthalene in PBS. Ethyl acetate extraction gave a salt free fraction which was converted to the trimethyl silyl ethers with Tri-Sil (Pierce). Analysis was performed on a Hewlett-Packard 5890 selected ion monitoring GC-MS system. GC was performed on a fused silica capillary column (DB-5.25 mx. […]) using the following temperature program: injector port 250° C., initial column temperature 150° C. which is held for 1 minute, then increased to 290° C. at 16° C./minute and held for 15 minutes. Quantitation of 3DG employed selected ion monitoring using an internal standard of U-13C-3DG.
# [1] = target: T1, Calf skin collagen Type I (Bos taurus, UniProt P02453+P02465); experiment: Collagen crosslinking by 3DG in vitro (CNBr digestion, SDS-PAGE); type: biochemical; conditions: 37° C., 24 hours
# T1 construct: Calf skin collagen Type I (1.3 mg; Sigma); purchased Sigma; host or cells: calf skin (tissue-derived)
# T1 sequence (P02453 162-1217 limits assumed): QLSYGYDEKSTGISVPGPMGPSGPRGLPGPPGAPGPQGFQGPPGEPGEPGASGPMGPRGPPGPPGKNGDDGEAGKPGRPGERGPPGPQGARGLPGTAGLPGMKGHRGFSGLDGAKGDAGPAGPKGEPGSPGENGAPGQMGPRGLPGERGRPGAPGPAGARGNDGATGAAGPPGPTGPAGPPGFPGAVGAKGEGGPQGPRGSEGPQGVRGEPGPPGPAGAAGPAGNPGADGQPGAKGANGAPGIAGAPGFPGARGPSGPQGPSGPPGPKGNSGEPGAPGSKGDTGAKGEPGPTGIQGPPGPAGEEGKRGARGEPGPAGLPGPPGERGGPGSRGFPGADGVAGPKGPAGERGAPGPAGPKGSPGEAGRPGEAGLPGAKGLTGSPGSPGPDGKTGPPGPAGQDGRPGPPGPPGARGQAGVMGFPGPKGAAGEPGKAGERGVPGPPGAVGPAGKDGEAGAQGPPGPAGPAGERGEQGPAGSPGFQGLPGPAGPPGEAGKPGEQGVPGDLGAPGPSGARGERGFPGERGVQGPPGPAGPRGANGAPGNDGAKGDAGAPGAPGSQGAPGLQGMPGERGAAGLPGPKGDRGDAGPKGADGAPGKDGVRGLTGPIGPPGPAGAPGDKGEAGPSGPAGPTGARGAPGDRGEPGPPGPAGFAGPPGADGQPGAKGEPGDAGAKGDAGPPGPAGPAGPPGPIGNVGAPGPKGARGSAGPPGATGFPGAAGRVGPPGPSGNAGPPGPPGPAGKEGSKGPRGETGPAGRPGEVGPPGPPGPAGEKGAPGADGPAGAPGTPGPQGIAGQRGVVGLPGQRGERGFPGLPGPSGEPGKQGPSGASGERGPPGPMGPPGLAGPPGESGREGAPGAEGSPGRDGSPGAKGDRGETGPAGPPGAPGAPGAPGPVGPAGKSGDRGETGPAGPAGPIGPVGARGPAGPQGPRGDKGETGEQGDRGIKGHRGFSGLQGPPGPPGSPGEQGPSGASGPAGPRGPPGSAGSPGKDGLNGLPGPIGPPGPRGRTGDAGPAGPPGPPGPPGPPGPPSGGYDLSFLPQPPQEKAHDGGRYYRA
# T1 sequence (P02465 80-1117 limits assumed): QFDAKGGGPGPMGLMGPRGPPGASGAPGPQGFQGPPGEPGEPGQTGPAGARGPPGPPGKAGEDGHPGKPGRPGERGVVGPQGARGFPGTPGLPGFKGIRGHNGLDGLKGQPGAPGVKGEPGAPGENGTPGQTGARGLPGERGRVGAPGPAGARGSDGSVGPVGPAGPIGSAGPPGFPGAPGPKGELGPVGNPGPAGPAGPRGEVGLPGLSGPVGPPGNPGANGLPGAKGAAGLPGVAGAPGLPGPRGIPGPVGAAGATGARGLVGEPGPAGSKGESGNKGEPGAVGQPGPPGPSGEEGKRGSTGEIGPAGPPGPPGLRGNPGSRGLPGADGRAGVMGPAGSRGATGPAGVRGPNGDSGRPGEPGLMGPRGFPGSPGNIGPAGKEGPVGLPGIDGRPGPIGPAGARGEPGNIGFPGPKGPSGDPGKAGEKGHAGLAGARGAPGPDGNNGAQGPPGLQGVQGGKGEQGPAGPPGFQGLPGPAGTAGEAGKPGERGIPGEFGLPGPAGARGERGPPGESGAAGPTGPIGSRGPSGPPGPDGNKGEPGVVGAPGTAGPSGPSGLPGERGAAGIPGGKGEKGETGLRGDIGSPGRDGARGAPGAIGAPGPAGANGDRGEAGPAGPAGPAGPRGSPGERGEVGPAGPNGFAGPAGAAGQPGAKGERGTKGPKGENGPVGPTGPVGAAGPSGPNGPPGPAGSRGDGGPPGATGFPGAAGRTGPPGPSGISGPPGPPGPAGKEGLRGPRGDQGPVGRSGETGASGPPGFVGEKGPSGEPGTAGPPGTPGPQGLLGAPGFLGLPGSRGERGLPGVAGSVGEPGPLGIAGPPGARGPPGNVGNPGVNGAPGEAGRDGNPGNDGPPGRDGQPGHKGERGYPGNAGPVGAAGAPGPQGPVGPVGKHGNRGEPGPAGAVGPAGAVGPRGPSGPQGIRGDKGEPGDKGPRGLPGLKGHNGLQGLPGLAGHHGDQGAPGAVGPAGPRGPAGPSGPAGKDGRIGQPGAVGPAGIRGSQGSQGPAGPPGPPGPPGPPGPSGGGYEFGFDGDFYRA
# Method: Collagen type I was treated with 3DG in the presence or absence of arginine. The samples were subjected to cyanogen bromide (CNBr) digestion, electrophoresed on a 16.5% SDS Tris-tricine gel, and then the gels were processed using silver stain techniques to visualize the proteins. Lane 1 contains molecular weight marker standards. Lanes 2 and 5 contain 10 and 20 μl of the collagen mixture following CNBr digestion. Lanes 3 and 6 contain the collagen mixture treated with 3DG and then digested with CNBr, and loaded at 10 and 20 μl, respectively. Lanes 4 and 7 contain the mixture of collagen incubated with 5 mM 3DG and 10 mM arginine and then digested with CNBr, and loaded at 10 and 20 μl, respectively.
# Collagen I was incubated in the presence or absence of 3DG in vitro. Calf skin collagen Type I (1.3 mg; Sigma) was incubated in 20 mM Na-phosphate buffer, pH 7.25, either alone, with 5 mM 3DG, or with 5 mM 3DG plus 10 mM arginine, in a total volume of 1 ml at 37° C. for 24 hours and then frozen and lyophilized. The residue was dissolved in 0.5 ml of 70% formic acid and cyanogen bromide was added (20:1, w/w). This solution was incubated at 30° C. for 18 hours. […] The extent of collagen crosslinking was determined by applying equal volumes of sample and analyzing by SDS-PAGE electrophoresis (16.5% Tris-tricine gel), as determined by the effects of 3DG on the migration of collagen.
# 3DG = experiment: Plasma 3DG levels in diabetic and non-diabetic rats treated with 3-O-methyl sorbitollysine; type: in vivo, rat; conditions: for plasma 3DG level: 50 mg/kg body weight injections, within one week
# Method: A cohort of twelve diabetic rats was divided into two groups of six. The first group received saline-only injections, and the second received injections of 3-O-methyl sorbitollysine (50 mg/kg body weight) in saline solution. The same procedure was conducted on a cohort of twelve non-diabetic rats.
# [2] = Locus of 3-O-methyl sorbitollysine uptake in vivo (recovery from tissues, urine, plasma); set-up: species or system rat
# Method: […] Urine was collected for 3 hours, after which the rats were sacrificed. The tissues to be analyzed were removed and freeze clamped in liquid nitrogen. Perchloric acid extracts of the tissues were used for metabolite analysis. The tissues examined were taken from the brain, heart, muscle, sciatic nerve, spleen, pancreas, liver, and kidney. Plasma was also analyzed.
# [3] = test system: skin of STZ-diabetic rats; experiment: Skin elasticity measurement (vacuum pull) in STZ-diabetic and normal rats; type: in vivo, rat; conditions: 50 mg/kg daily subcutaneous, eight weeks
# Method: Experiments were performed to determine the effects of DYN 12 on the loss of skin elasticity associated with diabetes. To this end, two groups of STZ-diabetic rats and two groups of normal rats were subjected to treatment with DYN 12 or saline. One group of STZ-diabetic rats (n=9) received daily subcutaneous injections of DYN 12 at 50 mg/kg for eight weeks, as did one group of normal rats (n=6). A group of control diabetic rats (n=10) and a group of normal rats (n=6) received saline instead of DYN 12. One rat was removed from the diabetic DYN 12 group after 2 weeks because its blood glucose readings were inconsistent (too low) with other diabetic rats.
# A non-invasive procedure based on CyberDERM, Inc. technology utilizing a skin elasticity measurement device was used to test the effects of DYN 12 treatment on skin elasticity. The procedure provides for non-invasive measurement of skin elasticity based upon the amount of vacuum pull required to displace skin. A suction cup probe is adhered to an area of shaved skin in order to form an airtight seal. Then, a vacuum is applied to the area of the skin inside the suction cup until the skin is displaced past a sensor located inside the probe. Accordingly, the more pressure that is required to displace the skin, the less elastic the skin is.
# diabetic rats = experiment: Muscle strength / resistance to pull in alert restrained diabetic rats; type: in vivo, rat; conditions: diabetic rats treated vs not treated; preliminary data
# Excerpt: The present invention also encompasses methods for prevention of hair loss associated with or mediated by loss of microcirculation and/or loss of neuro-innervation in populations of aging, sclerodermic and/or in diabetic individuals. This is because 3DG is a known precursor to the formation of AGEs which are known to be causally connected to the development of neuropathy. […] This supports the concept that maintenance of nerve conduction and microcirculation that supports nerve innervation is deleteriously affected not only by AGEs, but also 3DG. Similarly, where 3DG would cause blockage of the microcirculation that supports nerve innervation of the hair follicle, the hair follicle will atrophy and die, as is the case in neuropathy. Accordingly, the present invention includes methods for preventing hair loss, where such hair loss is associated with or mediated by the presence of 3DG in the skin proximal to a hair follicle/shaft.
# Skin elasticity measurements were also taken on the test subjects as described above, but without sedating the test animals before measurement. FIG. 15 illustrates skin elasticity measurements taken on the hind leg of the test subjects while the subjects were alert and being restrained by a technician.
# In these experiments, the animals were fiercely fighting restraint and the results are different.
# mouse mesangial cells = experiment: Type IV collagen production in kidney cells in vitro; type: cell-based
# Method: Type IV collagen production was measured in mouse mesangial cells. Controls (grown with […]) produced 300 ng of Type IV collagen per 10,000 cells, whereas fructoselysine treated cells (5 or 10 mM fructoselysine with 10 mM glucose) produced 560 and 1100 ng/10,000 cells.
# [4] = set-up: species or system human; conditions: in vivo
# Method: Volunteers spent two days on a fructoselysine-free diet and then consumed 22.5 g of the food product prepared as described herein, thus effectively receiving a 2 gram dose of fructoselysine. Urine was collected at 2 hour intervals for 14 hours and a final collection was made at 24 hours. FL was measured by HPLC with a Waters 996 diode Array using a Waters C18 Free Amino Acid column at 46° C. and a gradient elution system of acetonitrile-methyl alcohol-water (45:15:40) into acetonitrile-sodium acetate-water (6:2:92) at 1 ml/min. Quantitation employed an internal standard of meglumine. 3DF was measured by HPLC after deionization of the sample. Analyses were performed on a Dionex DX-500 HPLC system employing a PA1 column (Dionex) and eluting with 32 mM sodium hydroxide at 1 ml/min. Quantitation was performed from standard curves obtained daily with synthetic 3DF. 3DG was measured by GC-MS after deionization of the sample. 3DG was derivatized with a 10-fold excess of diaminonaphthalene in PBS. Ethyl acetate extraction gave a salt free fraction which was converted to the trimethyl silyl ethers with Tri-Sil (Pierce). Analysis was performed on a Hewlett-Packard 5890 selected ion monitoring GC-MS system. […] Quantitation of 3DG employed selected ion monitoring using an internal standard of U-13C-3DG.
smiles,measurement,setting,value
N[C@@H](CCCCNC[C@H](O)[C@@H](O)[C@H](O)[C@H](O)CO)C(=O)O [sorbitollysine],Plasma 3-deoxyglucosone reduced,3-deoxyglucosone,40%
same,average reduction of urinary 3-deoxyglucosone,3-deoxyglucosone,50%
"O=CC(=O)C[C@H](O)[C@H](O)CO [3DG, 3-deoxyglucosone]",collagen crosslinking (migration on SDS-PAGE),[1]; 5 mM 3DG,caused the collagen to migrate as if it had a higher molecular weight
"N=C(N)NCCC[C@H](N)C(=O)O [arginine, reference compound]",inhibition of 3DG induced collagen crosslinking,[1]; 5 mM 3DG plus 10 mM arginine,fewer high molecular bands
"CO[C@@H]([C@H](O)[C@H](O)CO)[C@@H](O)CNCCCC[C@H](N)C(=O)O [DYN 12, 3-O-methylsorbitollysine]",% Reduction of plasma 3DG vs saline only,3DG; Diabetic rats,53%
same,plasma 3DG level,3DG; Diabetic rats,0.44 ± 0.10 µM
same,% Reduction of plasma 3DG vs saline only,3DG; Non-diabetic rats,43%
same,plasma 3DG level,3DG; Non-diabetic rats,0.13 ± 0.02 µM
same,nmols 3OMeSL in kidneys,"[2]; 13500 nmols injected intraperitoneally, sacrificed after 3 hours, one line per rat, listed as 3OMeSL",8155 nmols and 3880 nmols and 10071 nmols and 6582 nmols and 5373 nmols and 4833 nmols
same,Nmols 3OMeSL in urine,"[2]; 13500 nmols injected intraperitoneally, urine collected 3 hours, one line per rat (Rat # 2084-2089), listed as 3OMeSL",4200 nmols and 1355 nmols and 2940 nmols and 1675 nmols and 1778 nmols and 2360 nmols
same,presence in urine and plasma,[2]; 3 hours after ip injection,"The urine also contained 3-O-methyl sorbitollysine, but plasma did not"
same,tissue extracts found to contain the compound,"[2]; brain, heart, muscle, sciatic nerve, spleen, pancreas, liver, kidney examined 3 hours after ip injection",The only tissue extract found to contain 3-O-methyl sorbitollysine was that of the kidney
same,% 3OMeSL recovered (percentage of the injected dose recovered from urine and kidney),"[2]; urine plus kidneys, one line per rat, listed as 3OMeSL",91.5% and 38.8% and 96.4% and 61.2% and 53.0% and 53.3%
same,total 3OMeSL recovered,"[2]; urine plus kidneys, one line per rat, listed as 3OMeSL, in nmol",12355 and 5235 and 13011 and 8257 and 7151 and 7193
same,amount of pressure needed to displace the skin,[3],3.2+/−1.2 kPA
same,muscle strength measured while alert,diabetic rats,stronger muscle strength
"NC(CCCCNCC(=O)C(O)C(O)C(O)CO)C(=O)O (stereo not drawn) [fructoselysine, 1-deoxy-1-(ε-aminolysine)-fructose]",Type IV collagen production,mouse mesangial cells; 5 mM fructoselysine with 10 mM glucose,"560 ng/10,000 cells"
same,Type IV collagen production,mouse mesangial cells; 10 mM fructoselysine with 10 mM glucose,"1100 ng/10,000 cells"
same,time of peak 3DF excretion in urine after the bolus,[4],about 4 hours
N[C@@H](CCCCNC[C@@H](O)[C@@H](O)[C@H](O)[C@H](O)CO)C(=O)O [mannitollysine],Plasma 3-deoxyglucosone reduced,3-deoxyglucosone,58%
same,average reduction of urinary 3-deoxyglucosone,3-deoxyglucosone,35%
CNC[C@H](O)[C@@H](O)[C@H](O)[C@H](O)CO [meglumine],average 3-deoxyglucosone concentrations in the urine decreased,"3-deoxyglucosone; three rats, 100 μmols intraperitoneal, three hours after the injection",42%
N[C@@H](CCCCNC[C@H](O)[C@@H](O)[C@@H](O)[C@H](O)CO)C(=O)O [galactitollysine],Plasma 3-deoxyglucosone reduced,3-deoxyglucosone,50%
same,average reduction of urinary 3-deoxyglucosone,3-deoxyglucosone,35%
